Test results reported in patent US5872130A, “Quinoline type mevalonoactones” (Nissan Chemical Industries Ltd., priority 1988, dated 1999).

Tested on: cholesterol biosynthesis
Assay: Test A: Inhibition of cholesterol biosynthesis from acetate in vitro (rat liver microsome and sup fraction)
Type: biochemical, male Wistar rat
Conditions: based on the activities of CS-514 being evaluated to be 1
Procedure: Test A: Inhibition of cholesterol biosynthesis from acetate in vitro
Enzyme solution was prepared from liver of male Wistar rat billialy cannulated and discharged bile for over 24 hours. Liver was cut out at mid-dark and microsome and supernatant fraction which was precipitable with 40-80% of saturation of ammonium sulfate (sup fraction) were prepared from liver homogenate according to the modified method of Knauss et al; Kuroda, M, et al, Biochim. Biophys. Acta, 489, 119 (1977). For assay of cholesterol biosynthesis, microsome (0.1 mg protein) and sup fraction (1.0 mg protein) were incubated for 2, hours at 37° C. in 200 μl of the reaction mixture containing ATP; 1 mM, Glutathione; 6 mM, Glucose-1-phosphate; 10 mM, NAD; 0.25 mM, NADP; 0.25 mM, CoA; 0.04 mM and 0.2 mM [2-^14 C]sodium acetate (0.2 μCi) with 4 μl of test compound solution dissolved in water or dimethyl sulfoxide. To stop reaction and saponify, 1 ml of 15% EtOH-KOH was added to the reactions and heated at 75° C. for 1 hour. […] Inhibitory activity of compounds was indicated with IC50.

CCOC(=O)CC(O)CC(O)/C=C/c1c(CC)nc2ccccc2c1-c1ccc(F)cc1 (centres unmarked) [I-117]
Relative activities by Test A: 0.37

CC(C)c1nc2c(Cl)cc(Cl)cc2c(-c2ccc(F)cc2)c1/C=C/C(O)CC(O)CC(=O)O (centres unmarked) [I-522]
Relative activities by Test A: 0.76
